Where “and” joins values, the source holds several entries; their conditions need not be identical. Identical values can stand only once.
System: Acinetobacter baumannii ATCC 19606 (GN_034)
Test: Synergy of cannabidiol with cell-wall disrupting agent (CBD MIC in combination, FICI)
Type: cell-based
Conditions: for FICI range: CBD with Spero SPR206
Procedure: The compounds were stored short term at 4° C.
Analysis was performed using Microsoft Excel.

[1] = Example 6, GN_034, listed as CBD

C=C(C)C1CCC(C)=CC1c1c(O)cc(CCCCC)cc1O (stereo not shown) [Cannabidiol, 2-[3-methyl-6-(1-methylethenyl)-2-cyclohexen-1-yl]-5-pentyl-1,3-benzenediol]
16 µg/mL and 8 µg/mL: CBD MIC with Polymyxin B at concentration […] [1]
4 µg/mL: CBD MIC with Colistin (Colistin at 0.031 μg/mL, Acinetobacter baumannii ATCC 19606) | CBD MIC with Colistin at concentration 0.03125 μg/mL (Example 3, GN_034)
0.63-16: FICI range (MIC table) (CBD with Ticarcillin, Acinetobacter baumannii ATCC 19606)
4: FICI (CBD with Spero SPR206 at 2 μg/mL, 1st of 3 experiments, CBD MIC taken as 256 μg/mL) | FICI (CBD with Ticarcillin at 16 μg/mL, Acinetobacter baumannii ATCC 19606)
0.135: Average FICI score (Example 1, GN_034, cannabidiol + MCC_006636 (Polymyxin B))
1.0625: FICI (CBD with Ticarcillin at 4 μg/mL, Acinetobacter baumannii ATCC 19606)
0.25: FICI (CBD with Spero SPR206 at […], 1st of 3 experiments, CBD MIC taken as 256 μg/mL)
32 µg/mL: CBD MIC with Cefepime (Cefepime at 4 μg/mL) | CBD MIC with Ceftazidime (Ceftazidime at 4 μg/mL (Table 66), Acinetobacter baumannii ATCC 19606) | CBD MIC with Ceftazidime (Ceftazidime at […] as headed in Table 64, Acinetobacter baumannii ATCC 19606) | CBD MIC with Cefuroxime at concentration 16 μg/mL (Example 2, GN_034) | CBD MIC with Aztreonam at concentration 4 μg/mL (Example 5, GN_034) | CBD MIC with Aztreonam at concentration 8 μg/mL (Example 5, GN_034) | CBD MIC with Cefepime at concentration 4 μg/mL (Example 5, GN_034)
2: FICI (CBD with Spero SPR206 at 0.25 μg/mL, 3rd of 3 experiments, CBD MIC taken as 256 μg/mL) | FICI (CBD with Spero SPR206 at 1 μg/mL, 1st of 3 experiments, CBD MIC taken as 256 μg/mL) | FICI (CBD with Ticarcillin at 8 μg/mL, Acinetobacter baumannii ATCC 19606)
0.0009766 µg/mL: CBD MIC with Cefuroxime at concentration 128 μg/mL (Example 2, GN_034) | CBD MIC with Colistin at concentration 1 μg/mL (Example 3, GN_034) | CBD MIC with Aztreonam at concentration 16 μg/mL (Example 5, GN_034) | CBD MIC with Polymyxin B at concentration 0.5 μg/mL (Example 6, GN_034)
>32 µg/mL: CBD MIC with Cefotetan (Cefotetan at 4 μg/mL) | CBD MIC with Cefotetan (Cefotetan at 8 μg/mL) | CBD MIC with Cefotetan (Cefotetan at 16 μg/mL) | CBD MIC with Cefotetan (Cefotetan at 32 μg/mL) | CBD MIC with Cefotetan (Cefotetan at 64 μg/mL) | CBD MIC with Cefotetan (Cefotetan at 128 μg/mL) | CBD MIC with Ceftazidime (Ceftazidime at 0.5 μg/mL (Table 66), Acinetobacter baumannii ATCC 19606) | CBD MIC with Ceftazidime (Ceftazidime at 1 μg/mL (Table 66), Acinetobacter baumannii ATCC 19606) | CBD MIC with Ceftazidime (Ceftazidime at 2 μg/mL (Table 66), Acinetobacter baumannii ATCC 19606)
0.25-8: FICI range (1st of 3 experiments)
1.5-16: FICI range (3rd of 3 experiments)
0.0625 µg/mL: CBD MIC with Cefuroxime at concentration 64 μg/mL (Example 2, GN_034)
1.5: FICI (CBD with Spero SPR206 at […], 3rd of 3 experiments, CBD MIC taken as 256 μg/mL)
8: FICI (CBD with Spero SPR206 at 2 μg/mL, 3rd of 3 experiments, CBD MIC taken as 256 μg/mL) | FICI (CBD with Spero SPR206 at 4 μg/mL, 1st of 3 experiments, CBD MIC taken as 256 μg/mL) | FICI (CBD with Ticarcillin at 32 μg/mL, Acinetobacter baumannii ATCC 19606)
0.001 µg/mL: CBD MIC with Ceftazidime (Ceftazidime at 0.5 μg/mL as headed in Table 64, Acinetobacter baumannii ATCC 19606) | CBD MIC with Ceftazidime (Ceftazidime at 16 μg/mL (Table 66), Acinetobacter baumannii ATCC 19606) | CBD MIC with Colistin (Colistin at 1 μg/mL, Acinetobacter baumannii ATCC 19606) | CBD MIC with Ticarcillin (Ticarcillin at 16 μg/mL, Acinetobacter baumannii ATCC 19606) | CBD MIC with Ticarcillin (Ticarcillin at 32 μg/mL, Acinetobacter baumannii ATCC 19606) | CBD MIC with Ticarcillin (Ticarcillin at 64 μg/mL, Acinetobacter baumannii ATCC 19606)
16: FICI (CBD with Spero SPR206 at 4 μg/mL, 3rd of 3 experiments, CBD MIC taken as 256 μg/mL) | FICI (CBD with Ticarcillin at 64 μg/mL, Acinetobacter baumannii ATCC 19606)
3: FICI (CBD with Spero SPR206 at 0.5 μg/mL, 3rd of 3 experiments, CBD MIC taken as 256 μg/mL)
8 µg/mL and 4 µg/mL: CBD MIC with Polymyxin B at concentration 0.25 μg/mL [1]
4.004 and 4.002: FICI (CBD with Spero SPR206 at 1 μg/mL, 3rd of 3 experiments, CBD MIC taken as 256 μg/mL)
>256 µg/mL: CBD MIC with Cefotetan (Cefotetan at 4 μg/mL, Acinetobacter baumannii ATCC 19606) | CBD MIC with Cefotetan (Cefotetan at 8 μg/mL, Acinetobacter baumannii ATCC 19606) | CBD MIC with Cefotetan (Cefotetan at 16 μg/mL, Acinetobacter baumannii ATCC 19606) | CBD MIC with Cefotetan (Cefotetan at 32 μg/mL, Acinetobacter baumannii ATCC 19606) | CBD MIC with Cefotetan (Cefotetan at 64 μg/mL, Acinetobacter baumannii ATCC 19606) | CBD MIC with Cefotetan (Cefotetan at 128 μg/mL, Acinetobacter baumannii ATCC 19606) | CBD MIC with Ceftazidime (Ceftazidime at 0.015 μg/mL as headed in Table 64, Acinetobacter baumannii ATCC 19606) | CBD MIC with Ceftazidime (Ceftazidime at 0.031 μg/mL as headed in Table 64, Acinetobacter baumannii ATCC 19606) | CBD MIC with Ceftazidime (Ceftazidime at 0.062 μg/mL as headed in Table 64, Acinetobacter baumannii ATCC 19606) | CBD MIC with Cefuroxime at concentration 4 μg/mL (Example 2, GN_034) | CBD MIC with Cefuroxime at concentration 8 μg/mL (Example 2, GN_034) | CBD MIC with Aztreonam at concentration 0.5 μg/mL (Example 5, GN_034) | CBD MIC with Aztreonam at concentration 1 μg/mL (Example 5, GN_034) | CBD MIC with Aztreonam at concentration 2 μg/mL (Example 5, GN_034) | CBD MIC with Cefepime at concentration 0.25 μg/mL (Example 5, GN_034) | CBD MIC with Cefepime at concentration 0.5 μg/mL (Example 5, GN_034) | CBD MIC with Cefepime at concentration 1 μg/mL (Example 5, GN_034) | CBD MIC with Cefepime at concentration 2 μg/mL (Example 5, GN_034) | CBD MIC with Polymyxin B at concentration 0.015625 μg/mL (Example 6, GN_034) | CBD MIC with Polymyxin B at concentration 0.03125 μg/mL (Example 6, GN_034) | CBD MIC with Polymyxin B at concentration 0.0625 μg/mL (Example 6, GN_034)
1 µg/mL: CBD MIC with Colistin (Colistin at 0.25 μg/mL, Acinetobacter baumannii ATCC 19606) | CBD MIC with Colistin (Colistin at […], Acinetobacter baumannii ATCC 19606) | CBD MIC with Colistin at concentration 0.25 μg/mL (Example 3, GN_034) | CBD MIC with Colistin at concentration […] (Example 3, GN_034)
0.5 µg/mL: CBD MIC with Spero SPR206 (Spero SPR206 at 1 μg/mL, 3rd of 3 experiments, listed as CBD)
effective: activity of cannabidiol in combination with Polymyxin B (Example 1) | activity of cannabidiol combined with cefuroxime (Example 2) | activity of cannabidiol combined with colistin (Example 3) | activity of cannabidiol combined with octapeptin MCC_006442 (Example 4) | activity of cannabidiol combined with aztreonam (Example 5) | activity of cannabidiol combined with cefepime (Example 5) | activity of cannabidiol combined with Polymyxin B (Example 6) | activity of cannabidiol in combination with octapeptin MCC_006442 (Example 7) | activity of cannabidiol combined with cefuroxime (Example 12) | activity of cannabidiol combined with colistin (Example 14) | activity of cannabidiol combined with octapeptin MCC_006442 (Example 15) | activity of cannabidiol combined with aztreonam (Example 18) | activity of cannabidiol combined with cefepime (Example 19) | activity of cannabidiol combined with octapeptin C4 (Example 21) | activity of cannabidiol in combination with Spero Potentiator SPR741 (Example 22) | activity of cannabidiol in combination with Spero SPR206 (Example 22) | activity of cannabidiol in combination with octapeptin FADDI-287 (Example 23) | activity of cannabidiol in combination with MCC_8980 (Example 24)
0.5: FICI (CBD with Spero SPR206 at 0.25 μg/mL, 1st of 3 experiments, CBD MIC taken as 256 μg/mL)
1: FICI (CBD with Spero SPR206 at 0.5 μg/mL, 1st of 3 experiments, CBD MIC taken as 256 μg/mL)
0.625: FICI (CBD with Ticarcillin at 2 μg/mL, Acinetobacter baumannii ATCC 19606)
YES: Synergy (Example 1, GN_034, cannabidiol + MCC_006636 (Polymyxin B), synergy when FICI≤0.5)
16 µg/mL and 32 µg/mL: CBD MIC with Cefuroxime at concentration 32 μg/mL (Example 2, GN_034, listed as CBD)
2 µg/mL: CBD MIC with Colistin (Colistin at 0.062 μg/mL, Acinetobacter baumannii ATCC 19606) | CBD MIC with Colistin at concentration 0.0625 μg/mL (Example 3, GN_034)
16 µg/mL: CBD MIC with Cefepime (Cefepime at 8 μg/mL) | CBD MIC with Ceftazidime (Ceftazidime at 0.25 μg/mL as headed in Table 64, Acinetobacter baumannii ATCC 19606) | CBD MIC with Ceftazidime (Ceftazidime at 8 μg/mL (Table 66), Acinetobacter baumannii ATCC 19606) | CBD MIC with Cefepime at concentration 8 μg/mL (Example 5, GN_034) | CBD MIC with Octapeptin C4 (Octapeptin C4 at 2 μg/mL, listed as CBD)
